Data as given in ChEMBL document CHEMBL1126222, “Investigation of conformational specificity at GPIIb/IIIa: evaluation of conformationally constrained RGD peptides” (J Med Chem, 1992).

How the values were obtained:
[1] = target: T1, Integrin alpha-IIb/beta-3 (Homo sapiens, UniProt P05106+P08514); experiment: Inhibition of [3H]Mba-(N-Me)Arg-Gly-Asp-Man binding to GPIIb/IIIa from human platelets reconstituted in liposomes
[2] = target: T1, Integrin alpha-IIb/beta-3; experiment: Inhibition of [3H]Mba-(N-Me)Arg-Gly-Asp-Man binding to fibrinogen receptor of human platelets reconstituted in liposomes
[3] = target: T1, Integrin alpha-IIb/beta-3; experiment: Inhibition of [3H]Mba-(N-Me)Arg-Gly-Asp-Man binding to Fibrinogen Receptor from human platelets reconstituted in liposomes

T1 sequence (P05106 27-788 limits assumed): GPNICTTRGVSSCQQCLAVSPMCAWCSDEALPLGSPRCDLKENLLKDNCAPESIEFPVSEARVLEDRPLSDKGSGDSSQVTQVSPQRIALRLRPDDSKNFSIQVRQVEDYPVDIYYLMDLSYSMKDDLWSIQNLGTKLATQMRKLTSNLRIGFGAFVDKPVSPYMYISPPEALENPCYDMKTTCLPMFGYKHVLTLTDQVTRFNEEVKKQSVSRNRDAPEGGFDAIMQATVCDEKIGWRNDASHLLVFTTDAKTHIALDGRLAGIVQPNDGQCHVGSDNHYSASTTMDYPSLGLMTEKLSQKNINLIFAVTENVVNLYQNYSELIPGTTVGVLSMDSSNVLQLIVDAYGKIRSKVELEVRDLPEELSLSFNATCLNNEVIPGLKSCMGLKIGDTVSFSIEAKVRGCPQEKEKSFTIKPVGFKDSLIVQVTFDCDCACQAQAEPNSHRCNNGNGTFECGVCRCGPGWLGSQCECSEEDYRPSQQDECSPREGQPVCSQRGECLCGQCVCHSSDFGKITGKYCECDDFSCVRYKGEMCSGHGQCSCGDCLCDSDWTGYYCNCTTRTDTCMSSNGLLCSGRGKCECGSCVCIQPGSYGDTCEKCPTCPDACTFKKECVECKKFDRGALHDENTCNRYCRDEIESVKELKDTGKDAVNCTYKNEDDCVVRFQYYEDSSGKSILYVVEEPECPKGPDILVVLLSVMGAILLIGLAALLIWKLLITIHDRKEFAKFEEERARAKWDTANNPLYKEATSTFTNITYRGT
T1 sequence (P08514 32-887 limits assumed): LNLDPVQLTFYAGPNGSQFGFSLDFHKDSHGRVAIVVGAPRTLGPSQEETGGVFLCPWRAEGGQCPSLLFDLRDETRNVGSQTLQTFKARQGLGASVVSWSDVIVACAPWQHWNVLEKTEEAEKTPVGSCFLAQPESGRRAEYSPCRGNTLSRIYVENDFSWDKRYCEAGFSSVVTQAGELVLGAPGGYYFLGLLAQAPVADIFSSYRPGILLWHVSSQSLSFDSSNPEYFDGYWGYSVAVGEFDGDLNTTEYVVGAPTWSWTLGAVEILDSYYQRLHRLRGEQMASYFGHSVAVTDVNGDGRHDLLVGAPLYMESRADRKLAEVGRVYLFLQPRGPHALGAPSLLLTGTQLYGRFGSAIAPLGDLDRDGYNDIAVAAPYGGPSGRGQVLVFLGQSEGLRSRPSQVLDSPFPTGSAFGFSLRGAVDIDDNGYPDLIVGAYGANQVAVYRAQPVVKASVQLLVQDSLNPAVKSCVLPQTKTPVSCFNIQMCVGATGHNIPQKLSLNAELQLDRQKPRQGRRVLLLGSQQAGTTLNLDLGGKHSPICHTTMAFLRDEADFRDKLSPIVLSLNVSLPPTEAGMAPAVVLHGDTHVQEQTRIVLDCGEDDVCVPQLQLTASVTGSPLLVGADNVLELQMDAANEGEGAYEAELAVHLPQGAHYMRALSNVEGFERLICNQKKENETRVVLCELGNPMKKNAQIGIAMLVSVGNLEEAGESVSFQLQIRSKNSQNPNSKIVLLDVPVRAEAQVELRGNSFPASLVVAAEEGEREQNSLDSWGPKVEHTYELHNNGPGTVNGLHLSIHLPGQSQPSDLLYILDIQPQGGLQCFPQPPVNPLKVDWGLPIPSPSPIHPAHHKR
T1 sequence (P08514 891-1039 limits assumed): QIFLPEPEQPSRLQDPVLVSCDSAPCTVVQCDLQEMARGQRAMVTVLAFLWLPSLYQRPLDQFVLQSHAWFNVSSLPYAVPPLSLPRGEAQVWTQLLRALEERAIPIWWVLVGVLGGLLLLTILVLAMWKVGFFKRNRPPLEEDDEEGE

Row | Ki [1] [µM] | Ki [2] [µM] | Compound | further results
1 | > 100 | – | N=C(N)NCCC[C@@H]1NC(=O)[C@@H]2CCCN2C(=O)CNC(=O)[C@H]2CCCN2C(=O)[C@H](CC(=O)O)NC(=O)CNC1=O | –
2 | – | 0.004 | CN(C(=O)c1ccccc1S)[C@@H](CCCNC(=N)N)C(=O)NCC(=O)N[C@@H](CC(=O)O)C(=O)Nc1ccccc1S | –
3 | – | 0.175 | CC(=O)N[C@@H](CS)C(=O)N(C)[C@@H](CCCN=C(N)N)C(=O)NCC(=O)N[C@@H](CC(=O)O)C(=O)N[C@H](C(N)=O)C(C)(C)S | –
4 | – | 3.3 | CC(=O)N[C@@H](CS)C(=O)N[C@H](CCCN=C(N)N)C(=O)NCC(=O)N[C@@H](CC(=O)O)C(=O)N[C@H](C(N)=O)C(C)(C)S | –
5 | 18.5 | – | N=C(N)NCCC[C@@H]1NC(=O)[C@@H]2CCCN2C(=O)[C@@H](Cc2ccccc2)NC(=O)CNC(=O)[C@H](CC(=O)O)NC(=O)CNC1=O | –
6 | – | – | CC(=O)N[C@@H](CS)C(=O)N[C@@H](CCCN=C(N)N)C(=O)NCC(=O)N[C@@H](CC(=O)O)C(=O)NC(C(N)=O)C(C)(C)S (stereo in doubt) | Ki [3]: 3.13 µM
